In test [1] the target is CAT-3 (Homo sapiens, UniProt Q8WY07). As to conditions: read-out: Km for L-Arg; cited from earlier work.
Test [2] relates to Jurkat cells. Briefly: CD3ζ chain expression in Jurkat cells on L-arginine depletion or replenishment (Western blot, flow cytometry). The format is cell-based. Here is the method: Next, it was tested whether L-arginine depletion altered the expression of the key elements of the T-cell antigen receptor and IL-2 receptor in Jurkat cells. […] The decreased expression of ζ chain was not due to an overall protein degradation since the expression of GAPDH and CD3ε was virtually unchanged over the same period of time. […] The initial decrease in CD3ζ could be seen as early as 24 hours, but continued up to 7 days in culture as compared to its expression in Jurkat cells cultured in C-RPMI that remains unchanged (data not shown).
Reappearance of CD3ζ chain occurred either by adding L-arginine alone at a concentration of 100 μM (FIGS. 4a, dashed line, and 4b, lane 3), or by replacing the TCM with C-RPMI (FIGS. 4a, solid line, and 4b, lane 4). […] The data discussed is representative of at least five experiments in each case.
Background: Immunoblotting shows a protein as a band on a membrane.

Test [3] concerns the target CAT-2B (Homo sapiens, UniProt P52569). As to conditions: read-out: Km for L-Arg; cited from earlier work.

Sequence of CAT-2B (P52569 whole entry, species assumed): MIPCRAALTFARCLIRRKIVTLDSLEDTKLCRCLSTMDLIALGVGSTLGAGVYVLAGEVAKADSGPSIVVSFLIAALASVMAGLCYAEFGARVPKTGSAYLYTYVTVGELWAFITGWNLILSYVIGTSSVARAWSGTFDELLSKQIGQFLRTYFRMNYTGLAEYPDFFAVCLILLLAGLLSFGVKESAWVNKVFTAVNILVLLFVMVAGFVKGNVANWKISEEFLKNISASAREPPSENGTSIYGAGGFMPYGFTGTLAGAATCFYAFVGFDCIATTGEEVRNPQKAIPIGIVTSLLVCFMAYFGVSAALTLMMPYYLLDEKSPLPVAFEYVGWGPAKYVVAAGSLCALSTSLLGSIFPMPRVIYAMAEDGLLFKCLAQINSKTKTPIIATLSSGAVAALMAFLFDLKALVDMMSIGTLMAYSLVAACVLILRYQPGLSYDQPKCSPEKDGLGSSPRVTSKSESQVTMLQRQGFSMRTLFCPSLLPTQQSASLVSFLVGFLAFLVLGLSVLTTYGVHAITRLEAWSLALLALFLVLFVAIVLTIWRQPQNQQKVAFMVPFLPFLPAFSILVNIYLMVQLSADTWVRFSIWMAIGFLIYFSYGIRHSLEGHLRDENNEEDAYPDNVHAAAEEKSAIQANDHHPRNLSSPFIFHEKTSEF
Sequence of CAT-3 (Q8WY07 whole entry, species assumed): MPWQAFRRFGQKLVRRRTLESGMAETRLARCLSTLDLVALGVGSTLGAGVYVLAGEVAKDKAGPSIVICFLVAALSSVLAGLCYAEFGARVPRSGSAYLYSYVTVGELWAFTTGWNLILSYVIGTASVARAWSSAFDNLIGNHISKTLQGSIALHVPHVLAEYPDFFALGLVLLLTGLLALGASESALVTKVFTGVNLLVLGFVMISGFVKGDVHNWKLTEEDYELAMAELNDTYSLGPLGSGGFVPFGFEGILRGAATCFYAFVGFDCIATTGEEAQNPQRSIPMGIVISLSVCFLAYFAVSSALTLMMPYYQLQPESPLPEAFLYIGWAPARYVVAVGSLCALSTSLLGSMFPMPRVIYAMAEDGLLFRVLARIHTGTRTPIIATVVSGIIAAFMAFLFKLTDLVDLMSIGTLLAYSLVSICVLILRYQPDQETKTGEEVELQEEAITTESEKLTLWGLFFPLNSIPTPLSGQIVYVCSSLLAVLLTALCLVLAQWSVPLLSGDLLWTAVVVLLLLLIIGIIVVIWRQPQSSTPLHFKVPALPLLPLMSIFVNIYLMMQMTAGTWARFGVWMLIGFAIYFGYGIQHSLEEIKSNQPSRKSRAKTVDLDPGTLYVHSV

For orientation: Km means the substrate concentration at which the rate is half of its maximum. Consider `N=C(N)NCCC[C@H](N)C(=O)O` [L-arginine], for which the Km in test [1] and in test [3] was 100 µM in each case. Further, the “L-Arg concentrations that cause the rapid decrease of CD3ζ chain” value in test [2] (Jurkat cells, in vitro) is recorded as “below 40 μM”. For the same molecule, the “loss of CD3ζ on replenishing L-arginine in the tissue culture medium” value in test [2] (L-arginine alone at 100 μM) is on record as “fully reversible”.
